Test results from BindingDB's records for doi:10.1002/cbic.201100007 (Yale University, 2011).

Molecular target: T1, dCTP pyrophosphatase 1 (Homo sapiens, UniProt Q9H773)
T1 sequence (Q9H773 whole entry): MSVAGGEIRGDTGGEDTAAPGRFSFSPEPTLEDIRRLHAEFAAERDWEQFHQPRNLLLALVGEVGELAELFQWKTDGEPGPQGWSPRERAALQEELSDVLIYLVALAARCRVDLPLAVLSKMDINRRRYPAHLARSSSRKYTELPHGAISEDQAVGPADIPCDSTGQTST
Assay: Enzyme Assay
Conditions: pH 7.4; 25 °C
Description: Kinetic enzyme assays were performed in a 384-well, white plates (Nunc) on a Wallac Victor 2 plate reader using human DCTPP1 and triptolide and analogues.

SMILES | Ki [µM]
CC(C)[C@]1(O)[C@H](O)[C@@H]2O[C@]23[C@]2(O[C@H]2CC2C4=C(CC[C@@]23C)C(=O)OC4)[C@@H]1O (some centres not stated) [Triptriolide, 5] | 85
CC(C)[C@]12O[C@H]1[C@@H]1O[C@@]13[C@@]1(C)CCC4=C(COC4=O)[C@]1(O)C[C@@H]1O[C@@]13C2=O [5-Hydroxytriptonide, 6] | 356
